Measurements taken from US20160010142A1, “Compositions and Methods For Analysis of C02 Absorption” (NOVOZYMES NORTH AMERICA, INC., priority 2013, published 2016).

How the values were obtained:
carbonic anhydrase [1] = test: Effect of salt on carbonic anhydrase activity, 50 mM bicine/cresol red assay; type: biochemical; details: form of the enzyme that precipitates in the absence of salt
Protocol: The measurement of CO2 absorption enhancement by carbonic anhydrase was performed as described in Example 1 except the assay reagent contains 50 mM bicine at pH 8.65+/−0.05. This embodiment of the assay reagent delays the assay response relative to Example 1. Such a delay expands the “assay window” (from 5.1 to 6.7 seconds, inclusive, in Example 1; to 6.8 to 9.9 seconds, inclusive), and permits analysis of more data points.
When required, such as for stability of certain forms of carbonic anhydrase, additional compounds, such as salts, for example sodium chloride, can be added to the assay reagent. This embodiment of the assay reagent leads to an improved measure of carbonic anhydrase activity for forms of the enzyme which, in the absence of salt, may aggregate, precipitate, or otherwise change their form and alter the result in the assay measurement of CO2 absorption enhancement. The required concentration of salt is expected to be enzyme dependent, and the assay can be used to determine the optimal salt concentration required for optimal enzyme activity determination.
FIG. 3 presents the effect of salt concentration on the determination of carbonic anhydrase activity for a form of the enzyme that precipitates in the absence of salt.

[2] = cited from earlier work
carbonic anhydrase [3] = test: Carbonic anhydrase activity before and after zinc addition, bicine/cresol red CO2 hydration assay; type: biochemical, microbial origin; details: for fold improvement: activity with 3.5 mM zinc salt versus assay sample without zinc; for Activity (U/mL): zinc deficient enzyme sample incubated with 3.5 mM zinc salt overnight at room temperature
Protocol: A solution containing 25 mM bicine and 123 micromolar (0.05 g/L) cresol-red (pH 8.3) is prepared as the assay reagent. The assay substrate is prepared at room temperature by bubbling CO2 gas into either a 125 mL Erlenmeyer flask containing 100 mL deionized H2O (dH2O) or a 50 ml plastic conical tube containing 30 mL dH2O. Bubbling proceeds for at least 10 minutes to yield a saturated CO2(aq) solution ([CO2]˜30 mM (Kernohan, J. C. 1965. Biochim. Biophys. Acta 96: 304). Carbonic anhydrase test samples are diluted for the assay using the assay reagent as diluent. A set of assay samples, made by 5- or 6-×0.7-fold serial dilutions of the enzyme test sample, are loaded onto a 96-well microtiter plate. Eight replicate wells each containing 100 microliters of each dilution are plated. Corresponding blank wells are loaded on the same plate in alternating columns with the assay sample wells. Blank wells contain either assay reagent alone or a 5- or 6-×0.7-fold serial dilution set of a modified enzyme test sample, where the modification involves removing or inactivating the active enzyme of the test sample.
The plate is inserted into a temperature controlled plate reader equipped with a liquid dispenser unit with the inject head immersed in the aqueous CO2 substrate solution. Initial absorbance of a single well is collected, followed by injection of 100 microliters of aqueous CO2 substrate into a single well and kinetic absorbance reads are collected at fixed time intervals (e.g., every 0.5 seconds) for that well such that the rate of absorbance change can be measured and used to indicate the rate of CO2 hydration. After approximately 5-10 seconds the reaction is no longer monitored and the process is repeated for all subsequent wells. Data automatically collected on the instrument is saved or exported in Microsoft Excel file format and copy/pasted into the Microsoft Excel automated data processing template. The data collected for each well is automatically checked for a linear slope (change in absorbance with change in time) within a selected “assay window” indicating the enzyme in that well was saturated with substrate during the assay window. The assay window is a sub-set of data points collected between selected time points for each well. The assay window for all wells in this example are the same. The slope of the data collected from an individual well assay window is called the “assay slope.” Wells passing the “linearity test” are averaged for a particular dilution to determine the “average assay slope” for that particular dilution. Next, a T-test between blank and assay sample replicates determines the probability that the differences between the two data sets could arise by chance, improving data quality by ensuring that data from an excessively diluted assay sample are not included in calculations of enzyme activity. If at least 3 dilution sets pass the T-test (T-test value <0.05), and at least 4 out of 8 replicate wells for those dilutions pass the “linearity test,” the average assay slope (change in absorbance per unit time) for each accepted dilution is plotted versus the amount of enzyme present in that dilution. […]
Carbonic anhydrase activity improvement was evaluated by measuring enzyme activity before and after zinc addition according to the method of Example 1. […]

[4] = compared to other indicators with similar pKas, such as phenol red; cited from earlier work

| Compound | pKa [2] | fold improvement (carbonic anhydrase [3]) | other results |
| --- | --- | --- | --- |
| [Cl-].[Na+] [NaCl, sodium chloride] | – | – | effect of salt addition on activity of a carbonic anhydrase test sample (carbonic anhydrase [1]): improve the activity |
| NC(CO)(CO)CO [Tris] | 8.0 | – | – |
| CCC1(CC)C(=O)NC(=O)NC1=O [Veronal] | 8.0 | – | – |
| [Cl-].[Cl-].[Zn+2] [ZnCl2] | – | 9 (ZnCl2) fold | Activity (U/mL) (carbonic anhydrase [3]): 5800 (ZnCl2) U/mL |
| O.O.O.O.O.O.O.O=S(=O)([O-])[O-].[Zn+2] [ZnSO4 × 7H2O, ZnSO4×7 H2O] | – | 10 (ZnSO4 × 7H2O) fold | Activity (U/mL) (carbonic anhydrase [3]): 6400 (ZnSO4 × 7H2O) U/mL |
| Cc1cc(C2(c3ccc(O)c(C)c3)OS(=O)(=O)c3ccccc32)ccc1O [cresol red, o-Cresolsulfonephthalein] | 8.32 | – | water solubility [4]: relatively high water solubility |
| [Zn] [zinc] | – | around 10 fold | – |
